Test results from US6589937B1, “Peptides and nootropic agent” (Kabushiki Kaisha Yakult Honsha, priority 1996, dated 2003).
Where a SMILES comes first, the peptide text is derived from it. [ ]: non-standard residue; d: D form. The star is where a group is joined. X1 = N=C(N)NCCC[C@H](N)C(=O)N[C@@H](Cc1c[nH]cn1)C(=O)N1CCC[C@H]1C(=O)N[C@@H](CS*)C(=O)O; pGlu = O=C1CC[C@@H](C(=O)O)N1

Key:
[1] = PI value by isoelectrofocusing (capillary electrophoresis); assay type: physicochemical; details: peptide 5 μg, UV 214 nm
Procedure: Further, the PI value was analyzed by the isoelectrofocusing method for the peptide 5 μg using a capillary electrophoretic apparatus (Beckman P/ACE 5000) and an isoelectrofocusing kit (eCAP 3-10, Beckman). The detection was carried out by UV 214 nm.

[2] = test system: rats; experiment: Passive avoidance test, administration 180 min before retention test; assay type: in vivo; details: rat, s.c., administered 3 hr before retention test
Procedure: The test solution in which each of these test drugs dissolved in saline was subcutaneously administered to rats. As to animals, male Wister rats (aged 7-9 weeks) were bought from Japan Charles River (JCR) and used after the preliminary feeding for more than one week. At the time of the preliminary feeding it lighted up from AM 8.00 to PM 8.00.
It was carried out by partially modifying the method of Ader R. R. (Psycon. Sci., 26, p125-128, 1972). Namely, rats were let stay in a light room of the passive avoidance test apparatus consisting of a light and dark rooms, and were let move freely for 2 min. After 45 min., the rats were let stay again in the light room. When the rats went into the dark room, the electric current 0.3 mA was applied for 30 sec. by Muromachikikai SGS-002 on the floor of the dark room. Further, in all processes of the experiment the rats were let move freely between the dark room and the light room. Each peptide was subcutaneously administered at 23 hr. (1 hr. before the retention test) after the electric shock. Subsequently, the rats were let stay in the light room after 1 hr. (24 hr. after the electric shock), the time (latency) when the rats went into the dark room was measured (retention test).
The test was carried out according to the test 2 except that the administration of the test solution was made at 21 hr. […]

[3] = assay type: in vitro ADME, rat
Procedure: C-AVP 4-9 series compound can be hydrolyzed in brain by the action of prolyl endopeptidase, and it is considered that they are converted to AVP 4-9.
Therefore, 500 μM of C-AVP 4-9-000 were incubated (6 hr., 37° C.) with a rat cerebral homogenate (100 μg/rat) in the presence or in the absence of carbobenzoyloxy prolyl-prolinal (ZPP, 20 μM) as known as a potent inhibitor for propyl endopeptitase. After incubation metabolites were extracted with methanol. The metabolites were analyzed by HPLC. Further, ZPP is a specific inhibitor for prolyl endopeptidase. After methanol extraction, the metabolites were quantitated by the separation with HPLC.

[4] = Evaluation of brain transition (CNS distribution after i.v. administration); details: mouse, in vivo, iv
Procedure: C-AVP 4-9-000 (389 Ci/mmol) labeled with ^125I by the chloramine-T method was administered (i.v.) to mice in 1 μCi, ^125I-C-AVP 4-9-000 in plasma was quantitated by separating the methanol extract using Radio-HPLC.
In the case of AS22, the radioactivity contained in the trifluoroacetic acid precipitate fraction was made the ^125I-AS22 amount. Further, ^125I-C-AVP 4-9-000 was quantitated by separating the methanol extract using Radio-HPLC.

Molecule | PI values [1] | effectiveness in passive avoidance (latency) [2] | formation of AVP 4-9 after 6 hour's incubation [3] | parent remaining after 6 hour's incubation ([3]; rat, brain homogenate, 6 h) | transition into brain [4]
pGlu-Asn-Cys-Pro-Arg-Gly-NH2 ([pGlu]NCPRG-NH2) [AVP 4-9, 4-9 fragment of arginine vasopressin, control drug] | 9.27 | did not show any significant effectiveness | – | – | –
N=C(N)NCCC[C@H](NC(=O)[C@@H]1CCCN1C(=O)[C@H](CSSC[C@H](NC(=O)[C@@H]1CCCN1C(=O)[C@H](Cc1c[nH]cn1)NC(=O)[C@@H](N)CCCNC(=N)N)C(=O)O)NC(=O)[C@H](CC(N)=O)NC(=O)[C@@H]1CCC(=O)N1)C(=O)NCC(N)=O [C-AVP 4-9-000] ([pGlu]NC(X1)PRG-NH2) | – | – | the formation of AVP 4-9 was observed | scarcely remained | transited into brain in a sufficient concentration
